In patent publication US8173673B2, “Biofilm-inhibiting effect and anti-infective activity of N,C-linked aryl isoquinolines and the use thereof” (Julius-Maximilians-Universitaet Wuerzburg, priority 2006, dated 2012) one finds EC50, IC50 and cytotoxicity data, which are given here for eleven compounds.

The term IC50 denotes the point on the concentration scale where inhibition reaches its midpoint.

SMILES strings stand for the structures. Where two headings read alike, the source gives them in different places.

Holding throughout (type): cell-based
In series [1] the test system is Trypanosoma brucei brucei strain TC-221. Nature of the series: Alamar Blue anti-trypanosome test, bloodstream forms. The method, then: Bloodstream-forms of the strain TC-221 of Trypanosoma brucei brucei were cultivated in enriched Baltz-culture medium in an atmosphere von 5% CO2 at 37° C. For activity determinations, a defined number of pathogens (10^4 trypanosomes per ml) were incubated in 96-well-plates with the compounds in different concentrations for 48 to 72 hours. The effect of the drugs was quantifiable using the ED50-values with linear interpolation. The trypanocidal activity of the test compounds was determined through measuring absorption on an MR 700 microplate reader (test wavelength 550 nm, reference wavelength 630 nm) by means of Alamar Blue®, an indicator of metabolic cellular functions. The addition of the dye took place 24 hours after starting the incubation. The color change of Alamar Blue® as used in this absorption measurements is based on reduction processes involving NADH or NADH-dependent enzymes. Incubation times and the concentrations of dye as required correlate with the metabolic activities of the trypanosomes. The MIC-value (minimum inhibitory concentration) was determined microscopically through counting of living cells in Neubauer-counting chambers. Suramine Na served both as positive control and reference.
The anti-trypanosomal activities of the compounds of the general structures 1-3 were studied based on a series of examples according to the above-described methods. The therapeutic index is the ratio of the cytoxicity (J774.1 macrophages) to the activities against Trypanosoma brucei brucei.
In general terms: The colour change of resazurin is a common sign of viable cells or microbes.

For series [2], the system named is Plasmodium falciparum strain K1. Nature of the series: [3H]-hypoxanthine-inclusion-test, anti-plasmodium activity. An excerpt:
For the determination of the anti-plasmodium activities, cultures of Plasmodium falciparum strain K1 (resistant against chloroquine and pyrimethamine) were used. A modification (R. G. Ridley, W. Hofheinz, if Matile, C. Jacquet, A. Dorn, R. Masciadri, S. Jolidon, W. F. Richter, A. Guenzi, M. A. Girometta, H. Urwyler, W. Huber, S. Thaitong, W. Peters, Antimicrob. Agents Chemother. 1996, 40, 1846-1854) of the [^3H]-hypoxanthine-inclusion-test (R. E. Desjardins, C. J. Canfield, D. Haynes, J. Chulay, Antimicrob. Agents Chemother. 1979, 16, 710-718) was used. Human red blood cells infected with P. falciparum (0.3% infection) at a hematocrit of 2.5% (volume fraction of the red blood cells) in RPMI 1640 medium with the serum replacement Albumax II (5 g/L) were incubated with serial dilutions of the drugs in microtiter plates for 48 hours at 37° C. under a CO2-enriched and O2-reduced atmosphere. Then, 0.5 μCi [^3H]-hypoxanthine were added to each well of the microtiter plate, and after a further 24 hours of incubation time the wells were harvested with a Betaplate Cell Harvester onto glass fiber filters, and lysed with distilled water. The incorporation of radio-labeled hypoxanthine (which correlates with the quantity of living parasites) was determined using a scintillation counter. The IC50 value was determined from sigmoidal inhibition curves. The tests were performed in duplicate, and repeated at least once. Parasite cultures without additive served as control (100% incorporation), cultures with a dilution series of chloroquine served as positive control.
(§1) The anti-plasmodia activities of the compounds of the general structures 1-3 were studied based on a series of examples according to the above-described methods. The therapeutic index is the ratio of the IC50 values for rat myoblasts (L-6-cells=cytotoxicity) to the IC50 values for Plasmodium falciparum.

The test system of series [3] is rat myoblasts (L-6-cells). Kind of series: Cytotoxicity on rat myoblasts (L-6-cells). The following applies: result in words.
Excerpt: as §1

Series [4] deals with Leishmania major-promastigotes (MHOM/IL81/FE/BNI). Nature of the series: Alamar Blue activity test against Leishmania major promastigotes. The method, then:
Leishmania major-promastigotes (MHOM/IL81/FE/BNI) were cultivated in blood agar-cultures at 26° C., 5% CO2, and 95% humidity. For the experiment, the promastigotes were washed twice with saline phosphate buffer (PBS) and subsequently suspended (10^8 cells/ml) in Click-RPMI-1640-medium without phenol red, spiked with 10% FCS, 2 mM L-glutamine, 1.0 mM HEPES-buffer, pH 7.2, 100 μg/ml penicillin, […] gentamycin, 7.5% NaHCO3 and 50 μM 2-mercaptoethanol (culture medium). For the determination of activity, 200 μl of the promastigote-suspension in microtiter plates were each incubated with the compounds in a geometric series of dilutions for 24 hours at 26° C., 5% CO2, and 95% humidity. Subsequently, 20 μl Alamar Blue (Trinova Biochem, Gieβen, Germany) were added to each of the microcultures, and the cultures were incubated further. Cultures that only contained medium and the compound, or only cellular suspension (without compound), served as controls. The optical density was measured after another 24 hours with an ELISA-reader at the wave lengths 550 nm and 630 nm. The IC50-values of the compounds were calculated through linear interpolation (J. Mikes, D. Steverding. Parasitol. Int. 2000, 48, 265-269).
Macrophages of the cell line J774.1 were washed and suspended in culture medium ([…]. For the test, 200 μl of the cell suspension and the compounds were pipetted in a geometric series of dilutions into cultures on microtiter plates. Following 24 hours of incubation at 37° C., 5% CO2, and 95% humidity, 20 μl Alamar Blue were added to each micro-culture, and the microtiter plate was incubated further. Micro-cultures with medium and the compound as well as micro-cultures that only contained cellular suspension (without compound), served as controls. The optical density was measured after 24, 48, and 72 hours with an ELISA-reader at the wavelengths 550 nm and 630 nm. The IC50-values of the compounds were calculated using linear interpolation. Amphotericin B served as a reference compound and positive control. […]

[5] abbreviates: Trypanosoma brucei, T. brucei brucei TC-221, after 48 h, read-out: ED50 (μM) after 48 h.
Where [6] appears, read: Trypanosoma brucei, T. brucei brucei TC-221, after 72 h, read-out: ED50 (μM) after 72 h.
Setting [7] is: P. falciparum strain K1 (resistant against chloroquine and pyrimethamine), read-out: IC50.

Turning to `COc1cc(OC)c2c(C)[n+](-c3ccccc3OC)c(C)cc2c1` [E], the EC50 in series [1] (setting [5]) amounted to 0.383 µM; in series [1] (setting [6]), 0.323 µM. On to `CCN(CC)CCCC(C)Nc1ccnc2cc(Cl)ccc12` (stereo not shown) [chloroquine, reference compound], for which, in series [2] (K1), the IC50 came to 119 nM.

Turning to `COc1cc(OC)c2c(C)[n+](-c3ccc(C(F)(F)F)cc3)c(C)cc2c1` [H], the half-inhibitory concentration (IC50) in series [2] (setting [7]) was 282 nM. As for `COc1cc(OC)c2c(C)[n+](-c3ccc(NC(C)=O)cc3)c(C)cc2c1` [I], the 50% inhibitory concentration (IC50) in series [2] (setting [7]) is 211 nM. Besides, in series [3], the cytotoxicity entry is on record as “without a detectable cytotoxicity”. As for `Cc1ccc(C(=O)Nc2ccc(S(=O)(=O)O)c3cc(S(=O)(=O)O)cc(S(=O)(=O)O)c23)cc1NC(=O)c1cccc(NC(=O)Nc2cccc(C(=O)Nc3cc(C(=O)Nc4ccc(S(=O)(=O)O)c5cc(S(=O)(=O)O)cc(S(=O)(=O)O)c45)ccc3C)c2)c1` [Suramin Na, reference compound], the EC50 in series [1] (T. brucei brucei TC-221, after 48 h, read-out: ED50 (μM) after 48 h) was determined as 0.31 µM; in series [1] (T. brucei brucei TC-221, after 72 h, read-out: ED50 (μM) after 72 h) it was 0.32 µM. For the compound `COc1cc(OC)c2c(C)[n+](-c3ccc(Cl)cc3)c(C)cc2c1` [G], in series [2] (setting [7]), the concentration for half-maximal inhibition (IC50) amounted to 56 nM. Turning to `COc1ccc(-[n+]2c(C)cc3cc(OC)cc(OC)c3c2C)c(OC)c1` [F], the EC50 amounted to 0.325 µM in series [1] (setting [5]) and 0.311 µM in series [1] (setting [6]).

As to `COc1cc2c(c(OC)c1)C(C)=[N+](c1cccc3ccccc13)[C@@H](C)C2` [Compound 2a, (3S)—N,1′-naphthyl-6,8-dimethoxy-1,3-dimethyl-3,4-dihydroisoquinolinium-trifluoro-acetate], the EC50 in series [1] (setting [5]) came out at 0.39 µM; in series [1] (setting [6]), 0.356 µM. In the case of `COc1cc(OC)c2c(C)[n+](-c3ccc(C(C)C)cc3)c(C)cc2c1` [D], the IC50 in series [4] came to 850 nM.

Compound `C[C@@H]1[C@H](O)[C@@H](C)/C=C/C=C/C=C/C=C/C=C/C=C/C=C/[C@H](O[C@@H]2O[C@H](C)[C@@H](O)[C@H](N)[C@@H]2O)C[C@@H]2O[C@](O)(C[C@@H](O)C[C@@H](O)[C@H](O)CC[C@@H](O)C[C@@H](O)CC(=O)O[C@H]1C)C[C@H](O)[C@H]2C(=O)O` [Amphotericin B, reference compound] showed an IC50 in series [4] of 2510 nM. The same measure, in the same setting: then `COc1cc(OC)c2c(C)[n+](-c3ccc(C)cc3)c(C)cc2c1` [B], with 2450 nM.
